According to the supplement of paper PMC5908809:

Tests used:
[1] = tested on: normal NK cells expanded with K562-aAPC; test: percent inhibition of viability; higher = more inhibition; settings: 72 h, IL-2 2.5 ng/mL
Experimental: (§1)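 Drug sensitivity and resistance testing on K562-aAPC-expanded normal NK cells: 5 concentrations (10-fold steps over a 10,000-fold range), 72 h at 37 °C, viability by CellTiter-Glo normalised to DMSO and benzethonium chloride controls; DSS from the fitted curve.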

[2] = tested on: IMC-1 (IL-2 20 ng/mL); test: as above; settings: 72 h
[3] = tested on: normal primary NK cells, pool 2 (3 donors) (IL-2 2.5 ng/mL); test: as above; settings: 72 h
[4] = tested on: normal primary NK cells, pool 3 (3 donors) (IL-2 2.5 ng/mL); test: as above; settings: 72 h
[5] = tested on: normal NK cells expanded with K562-aAPC; test: drug sensitivity score (DSS) (DSS units); higher = more sensitive; extreme values may be limits of the assay; settings: 72 h; IL-2 2.5 ng/mL
Experimental: as §1

[6] = tested on: IMC-1 (IL-2 20 ng/mL); test: as above; settings: 72 h
[7] = tested on: normal primary NK cells, pool 2 (3 donors) (IL-2 2.5 ng/mL); test: as above; settings: 72 h
[8] = tested on: normal primary NK cells, pool 3 (3 donors) (IL-2 2.5 ng/mL); test: as above; settings: 72 h

CC(C)N(C[C@H]1O[C@@H](n2cnc3c(N)ncnc32)[C@H](O)[C@@H]1O)[C@H]1C[C@@H](CCc2nc3cc(C(C)(C)C)ccc3[nH]2)C1 [Pinometostat] (max concentration tested 1000 nM)
percent inhibition of viability [%]
Settings	0.1 nM	1 nM	10 nM	100 nM	1000 nM
[1]	-0.7	-1.47	-2.36	3.36	12.5
[2]	-9.34	-4.07	-2.87	-4.72	3.86
[3]	-6.45	6.92	6.49	-0.47	0.82
[4]	-1.26	13	2.22	1.46	-1.92

Settings	drug sensitivity score
[5]	0.26
[6]	0
[7]	0
[8]	0

Cn1cc(C[C@@H](N)C(=O)O)c2ccccc21 [1-methyl-D-tryptophan] (max concentration tested 5000 nM)
percent inhibition of viability [%]
Settings	0.5 nM	5 nM	50 nM	500 nM	5000 nM
[1]	-12.1	-7.01	-8.73	0.95	6.01
[2]	-6.61	-9.96	-5.67	-2.82	0.08
[3]	-6.45	-5.59	-1.81	4.04	6.29
[4]	-7.11	-12.2	0.9	5.49	5.66

Settings	drug sensitivity score
[5]	0
[6]	0
[7]	0
[8]	0

COc1cc(Nc2ncc(F)c(Nc3ccc4c(n3)N(COP(=O)(O)O)C(=O)C(C)(C)O4)n2)cc(OC)c1OC [Fostamatinib] (max concentration tested 2500 nM)
percent inhibition of viability [%]
Settings	0.25 nM	2.5 nM	25 nM	250 nM	2500 nM
[1]	-1.89	-6.48	-4.68	-0.77	45.3
[2]	-2.94	-0.51	-4.59	-3.53	-9.62
[3]	-8.88	-12.4	-4.65	-3.71	24.9
[4]	-14	-12.5	-10.8	-5.58	4.31

Settings	drug sensitivity score
[5]	2.26
[6]	0.89
[7]	0.74
[8]	0

CN(C)C(=N)NC(=N)N [Metformin] (max concentration tested 100000 nM)
percent inhibition of viability [%]
Settings	10 nM	100 nM	1000 nM	10000 nM	100000 nM
[1]	-6.08	-6.07	-1.23	6.39	2.64
[2]	-3.89	-0.13	-3.1	-1.36	5.51
[3]	-3.45	0.32	10.6	8.75	12.4
[4]	-3.35	0.87	5.02	0.46	8.34

Settings	drug sensitivity score
[5]	0
[6]	0
[7]	1.13
[8]	0

CC(C)NC[C@@H](C(=O)N1CCN(c2ncnc3c2[C@H](C)C[C@H]3O)CC1)c1ccc(Cl)cc1 [Ipatasertib] (max concentration tested 10000 nM)
percent inhibition of viability [%]
Settings	1 nM	10 nM	100 nM	1000 nM	10000 nM
[1]	4.44	5.94	6.06	17.9	39.6
[2]	0.54	2.26	1.36	0.96	9.26
[3]	-8.24	-4.37	0.07	8.84	36
[4]	5.55	1.78	8.02	9.98	29.5

Settings	drug sensitivity score
[5]	3.79
[6]	0
[7]	3.09
[8]	2.08

N[C@@H](Cc1ccc(N(CCCl)CCCl)cc1)C(=O)O [Melphalan] (max concentration tested 12500 nM)
percent inhibition of viability [%]
Settings	1.25 nM	12.5 nM	125 nM	1250 nM	12500 nM
[1]	-1.69	-2.91	-0.58	0.8	6.31
[2]	-3.81	-2.31	-1.39	0.63	0.47
[3]	-5.43	-5.03	-6.41	7.99	1.1
[4]	-7.72	-2.35	-4.09	0.34	3.45

Settings	drug sensitivity score
[5]	0
[6]	0
[7]	0
[8]	0
